Measured values as given in patent publication US20130178413A1, “HCV NS3 PROTEASE INHIBITORS” (priority 2010, published 2013).
Read-outs that look alike come from different tables or passages of the source.

Columns and labels:
NS3/4A protease gt 1b = NS3/4A protease gt 1b (Hepatitis C virus genotype 1b, UniProt P26663); test: HCV NS3 protease time-resolved fluorescence (TRF) assay, NS3/4A inhibitory activity (Ki), gt 1b; format: biochemical; settings: genotype 1b NS3/4A; read-out: Enzyme Activity gt 1b Ki
In short: (§1)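 NS3/4A protease (gt 1b, 1b A156V, 3a) pre-incubated 30 min with inhibitor in 50 mM HEPES pH 7.5, 150 mM NaCl, 15% glycerol, 0.15% Triton X-100, 10 mM DTT, 0.1% PEG 8000; 100 nM TRF peptide substrate, 1 h at room temperature, quenched with MES pH 5.5. Time-resolved fluorescence (ex 340/em 615 nm); four-parameter IC50 converted to Ki via IC50=Ki(1+[S]/KM).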

[1] = molecular target: NS3/4A protease gt 1b A156V (Hepatitis C virus genotype 1b, UniProt P26663, A1182V); test: HCV NS3 protease time-resolved fluorescence (TRF) assay, NS3/4A inhibitory activity (Ki), gt 1b A156V mutant; format: biochemical, hepatitis C virus (HCV)
In short: as §1

gt 1b Replicon = test: HCV replicon assay, compound inhibitory potency (Replicon EC50); format: cell-based; settings: Hepatitis C virus, GT1B
In short: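 Stable replicon-harboring cells (neomycin phosphotransferase, some luciferase:Neor fusion) plated with compound dilution series without G418, incubated 24-48 h. Read-out: RNA by 32P-probe protection or TaqMan normalized to cyclophilin A RNA, or luciferase activity; EC50 as percent of DMSO control, four-parameter fit.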

NS3/4A protease gt 3a = NS3/4A protease gt 3a (Hepatitis C virus genotype 3a, UniProt Q81258); test: HCV NS3 protease time-resolved fluorescence (TRF) assay, NS3/4A inhibitory activity (Ki), gt 3a; format: biochemical; settings: genotype 3a NS3/4A; read-out: Enzyme Activity gt 3a Ki
In short: as §1

[2] = 10% Fetal Bovine Serum, read-out: gt 1b Replicon EC50 10% FBS
[3] = 50% Normal Human Serum, read-out: gt 1b Replicon EC50 50% NHS

In the case of `C=C[C@@H]1C[C@]1(NC(=O)[C@@H]1C[C@@H]2CN1C(=O)[C@H](C1CCCC1)NC(=O)O[C@]1(C)C[C@H]1CC/C=C/Cn1c(nc3cc(C)ccc3c1=O)O2)C(=O)NS(=O)(=O)C1(C)CC1` [Example I-24, (1aR,5S,8S,10R,20E,23aR)-5-cyclopentyl-N-[(1R,2S)-2-ethenyl-1-{[(1-methylcyclopropyl)sulfonyl]carbamoyl}cyclopropyl]-1a,14-dimethyl-3,6,17-trioxo-1,1a,3,4,5,6,9,10,19,22,23,23a-dodecahydro-8H,17H-7,10-methanocyclo propa[18,19][1,10,3,6,12] dioxatriazacyclo nonadecino[11,12-b]quinazoline-8-carboxamide], the Ki (NS3/4A protease gt 1b) is reported as 0.02 nM, the Ki [1] is reported as 0.9 nM and the EC50 (gt 1b Replicon; [2]) is reported as 2 nM. It also gave an EC50 (gt 1b Replicon; [3]) of 8.5 nM and a Ki (NS3/4A protease gt 3a) of 0.7 nM.

`C=C[C@@H]1C[C@]1(NC(=O)[C@@H]1C[C@@H]2CN1C(=O)[C@H](C1CCCC1)NC(=O)O[C@]1(C)C[C@H]1CC/C=C/Cn1c(nc3cc(Cl)ccc3c1=O)O2)C(=O)NS(=O)(=O)C1CC1` [Example I-26, (1aR,5S,8S,10R,20E,23aR)-14-chloro-5-cyclopentyl-N-{(1R,2S)-1-[(cyclopropylsulfonyl)carbamoyl]-2-ethenylcyclopropyl}-1a-methyl-3,6,17-trioxo-1,1a,3,4,5,6,9, 10,19,22,23,23a-dodecahydro-8H,17H-7,10-methano cyclopropa[18,19][1,10,3,6,12]dioxatriaza cyclononadecino[11,12-b]quinazoline-8-carboxamide] gave a Ki (NS3/4A protease gt 1b) of 0.02 nM, a Ki [1] of 1.6 nM and an EC50 (gt 1b Replicon; [2]) of 3 nM. For the same compound, the EC50 (gt 1b Replicon; [3]) was 13 nM and the Ki (NS3/4A protease gt 3a) was 0.8 nM.

`C=C[C@@H]1C[C@]1(NC(=O)[C@@H]1C[C@@H]2CN1C(=O)[C@H](C1CCCC1)NC(=O)O[C@]1(C)C[C@H]1CCCCCn1c(nc3cc(C)ccc3c1=O)O2)C(=O)NS(=O)(=O)C1CC1` [Example I-27, (1aR,5S,8S,10R,23aR)-5-cyclopentyl-N-{(1R,2S)-1-[(cyclopropylsulfonyl)carbamoyl]-2-ethenylcyclopropyl}-1a,14-dimethyl-3,6,17-trioxo-1,1a,3,4,5,6,9, 10,19,22,21,22,23,23a-tetradecahydro-8H,17H-7,10-methanocyclopropa[18, 19][1,10,3,6,12]dioxatri azacyclononadecino [11,12-b]quinazoline-8-carboxamide] gave a Ki (NS3/4A protease gt 1b) of 0.04 nM, a Ki [1] of 4.1 nM and an EC50 (gt 1b Replicon; [2]) of 2 nM. The EC50 (gt 1b Replicon; [3]) was 6 nM and the Ki (NS3/4A protease gt 3a) was 2.8 nM.

`C=C[C@@H]1C[C@]1(NC(=O)[C@@H]1C[C@@H]2CN1C(=O)[C@H](C1CCCC1)NC(=O)O[C@]1(C)C[C@H]1CCCCCc1nc3ccccc3nc1O2)C(=O)NS(=O)(=O)C1CC1` [Example I-28, (1aR,5S,8S,10R,22aR)-5-cyclopentyl-N-{(1R,2S)-1-[(cyclopropylsulfonyl)carbamoyl]-2-ethenylcyclopropyl}-1a-methyl-3,6-dioxo-1,1a,3,4,5,6,9,10,18,19, 20,21,22,22a-tetradecahydro-8H-7,10-methanocyclo propa[18,19][1,10,3,6] dioxadiazacyclonona decino[11,12-b]quinoxaline-8-carboxamide] showed a Ki (NS3/4A protease gt 1b) of 0.04 nM, a Ki [1] of 2.7 nM and an EC50 (gt 1b Replicon; [2]) of 2 nM. For the same compound, the EC50 (gt 1b Replicon; [3]) was 10 nM and the Ki (NS3/4A protease gt 3a) was 3.2 nM.

For `C=C[C@@H]1C[C@]1(NC(=O)[C@@H]1C[C@@H]2CN1C(=O)[C@H](C1CCCC1)NC(=O)O[C@]1(C)C[C@H]1CCCCCc1nc3ccccc3nc1O2)C(=O)NS(=O)(=O)C1(C)CC1` [Example I-29, (1aR,5S,8S,10R,22aR)-5-cyclopentyl-N-[(1R,2S)-2-ethenyl-1-{[(1-methylcyclopropyl)sulfonyl]carbamoyl}cyclopropyl]-1a-methyl-3,6-dioxo-1,1a,3,4,5,6,9,10,18,19, 20,21,22,22a-tetradecahydro-8H-7,10-methanocyclo propa[18,19][1,10,3,6] dioxadiazacyclonona decino[11,12-b]quinoxaline-8-carboxamide], the Ki (NS3/4A protease gt 1b) was 0.04 nM, the Ki [1] was 1.7 nM and the EC50 (gt 1b Replicon; [2]) was 3 nM. It also gave an EC50 (gt 1b Replicon; [3]) of 9 nM and a Ki (NS3/4A protease gt 3a) of 3.1 nM.

For `C=C[C@@H]1C[C@]1(NC(=O)[C@@H]1C[C@@H]2CN1C(=O)[C@H](C1CCCC1)NC(=O)O[C@]1(C)C[C@H]1CCCCCc1nc3cccc(OC)c3nc1O2)C(=O)NS(=O)(=O)C1CC1` [Example I-30, (1aR,5S,8S,10R,22aR)-5-cyclopentyl-N-{(1R,2S)-1-[(cyclopropylsulfonyl)carbamoyl]-2-ethenylcyclopropyl}-13-methoxy-1a-methyl-3,6-dioxo-1,1a,3,4,5,6,9,10,18,19,20,21,22,22a-tetradecahydro-8H-7,10-methanocyclo propa[18,19][1,10,3,6] dioxadiazacyclonona decino[11,12-b]quinoxaline-8-carboxamide], the Ki (NS3/4A protease gt 1b) was 0.02 nM, the Ki [1] was 1.9 nM and the EC50 (gt 1b Replicon; [2]) was 1 nM. The EC50 (gt 1b Replicon; [3]) was 5 nM and the Ki (NS3/4A protease gt 3a) was 2.2 nM.

`CC[C@@H]1C[C@]1(NC(=O)[C@@H]1C[C@@H]2CN1C(=O)[C@H](C1CCCC1)NC(=O)O[C@]1(C)C[C@H]1CC/C=C/Cn1c(nc3cc(C)ccc3c1=O)O2)C(=O)NS(=O)(=O)C1CC1` [Example I-31, (1aR,5S,8S,10R,20E,23aR)-5-cyclopentyl-N-{(1R,2R)-1-[(cyclopropylsulfonyl)carbamoyl]-2-ethylcyclopropyl}-1a,14-dimethyl-3,6,17-trioxo-1,1a,3,4,5,6,9,10,19,22,23,23a-dodecahydro-8H,17H-7,10-methanocyclo propa[18,19][1,10,3,6, 12]dioxatriazacyclo nonadecino[11,12-b]quinazoline-8-carboxamide] showed a Ki (NS3/4A protease gt 1b) of 0.1 nM, a Ki [1] of 13.3 nM and an EC50 (gt 1b Replicon; [2]) of 4 nM. The EC50 (gt 1b Replicon; [3]) was 10 nM and the Ki (NS3/4A protease gt 3a) was 5.3 nM.

Work on `C=C[C@@H]1C[C@]1(NC(=O)[C@@H]1C[C@@H]2CN1C(=O)[C@H](C(C)(C)C)NC(=O)O[C@]1(C)C[C@H]1CCC/C=C/c1cccc3c1CN(C3)C(=O)O2)C(=O)NS(=O)(=O)C1(C)CC1` [Example I-32, (1aR,5S,8S,10R,19E,23aR)-5-tert-butyl-N-[(1R,2S)-2-ethenyl-1-{[(1-methylcyclopropyl)sulfonyl]carbamoyl}cyclopropyl]-1a-methyl-3,6,12-trioxo-1a,3,4,5,6,9, 10,14,21,22,23,23a-dodecahydro-1H,8H-7,10:13,15-dimethanocyclopropa [n][4,13,2,8,11]benzo dioxatriazacyclo docosine-8(12H)-carboxamide] yielded a Ki (NS3/4A protease gt 1b) of 0.03 nM, a Ki [1] of 1 nM and an EC50 (gt 1b Replicon; [2]) of 1 nM. It also gave an EC50 (gt 1b Replicon; [3]) of 11 nM and a Ki (NS3/4A protease gt 3a) of 1.8 nM.
